Measurements reported in patent US20100113276A1, “USE OF N2-PHENYLAMIDINES AS HERBICIDES” (BAYER CROPSCIENCE AG, priority 2007, published 2010).

Assay: log P by HPLC on reversed-phase column (C18), EEC Directive 79/831 Annex V.A8
Format: physicochemical
Details: C18, 40° C.
Procedure: The log P data were determined in accordance with the EEC Directive 79/831 Annex V.A8 by HPLC (High Performance Liquid Chromatography) on a reversed-phase column (C18) using the following methods: […]
Calibration was carried out with the help of unbranched alkan-2-ones (consisting of 3 to 13 or 16 carbon atoms) with known logP values (determination of the logP values via the retention times by means of linear interpolation between two subsequent alkanones).

## COc1cc(Oc2ccc(Cl)c(C(F)(F)F)c2)c(OC)cc1N=CN(C)C(C)C [compound 987]
  log p acidic: 2.35
neutral
  log p neutral: 4.5

## COc1cc(-c2ccc(C)cc2)c(OC)cc1N=CN(C)C [compound 998]
  log p acidic: 1.76

## CCN(C)C=Nc1cc(OC)c(-c2ccc(C)cc2)cc1OC [compound 999]
  log p acidic: 1.89
